Reference: PubChem BioAssay (NCI)
Values joined by “and” are separate entries in the source; they are usually repeats but may differ in a detail not shown here. Identical values can stand only once.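 Exposure lasted 48 hours, with cells grown in 96-well plates and compounds tested at five concentrations. At the GI50, growth is halved. TGI marks complete inhibition of growth.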

Legend:
Assay in all cases: NCI anticancer screen, dose series, 48 h
OVCAR-3 ovarian = system: OVCAR-3 ovarian
SNB-19 CNS = system: SNB-19 CNS
PC-3 prostate = system: PC-3 prostate
NCI/ADR-RES ovarian = system: NCI/ADR-RES ovarian
KM12 colon = system: KM12 colon
OVCAR-4 ovarian = system: OVCAR-4 ovarian
HOP-92 NSCLC = system: HOP-92 NSCLC
HOP-62 NSCLC = system: HOP-62 NSCLC
DU-145 prostate = system: DU-145 prostate
K-562 leukemia = system: K-562 leukemia

| SMILES | GI50 (OVCAR-3 ovarian) | TGI (OVCAR-3 ovarian) | GI50 (SNB-19 CNS) | TGI (SNB-19 CNS) | GI50 (PC-3 prostate) | TGI (PC-3 prostate) | GI50 (NCI/ADR-RES ovarian) | TGI (NCI/ADR-RES ovarian) | GI50 (KM12 colon) | TGI (KM12 colon) | GI50 (OVCAR-4 ovarian) | TGI (OVCAR-4 ovarian) | GI50 (HOP-92 NSCLC) | TGI (HOP-92 NSCLC) | GI50 (HOP-62 NSCLC) | TGI (HOP-62 NSCLC) | GI50 (DU-145 prostate) | TGI (DU-145 prostate) | GI50 (K-562 leukemia) | TGI (K-562 leukemia) |
| --- | --- | --- | --- | --- | --- | --- | --- | --- | --- | --- | --- | --- | --- | --- | --- | --- | --- | --- | --- | --- |
| O=c1cccc(C#CCCCCOC2CCCO2)o1 (centres undefined) | 11.2 µM | 27.1 µM | > 28.6 µM | > 56.5 µM | 6.73 µM | > 54.6 µM | 12.2 µM | > 18 µM | 20.4 µM | > 45.8 µM | > 33.4 µM | > 60.1 µM | 2.17 µM | 11.5 µM | 7.88 µM | 18.2 µM | 10.3 µM | > 80 µM | 52.3 µM | > 100 µM |
| C=CC(=O)Nc1cc2c(Nc3ccc(OCc4ccccn4)c(Cl)c3)ncnc2cc1OCCN1CCOCC1 | 1.16 µM | 29.3 µM | 3.65 µM | > 100 µM | 4.28 µM | > 100 µM | 3.77 µM | > 100 µM | 5.04 µM | > 100 µM | 5.9 µM | > 100 µM | 1.02 µM | 9.06 µM | 3.2 µM | > 100 µM | 0.502 µM | > 100 µM | 2.79 µM | > 100 µM |
| COCCOC(C)C(/C=N/NC(N)=S)=N/NC(N)=S (centres undefined) | 0.0252 µM |  | > 100 µM | > 100 µM | 0.0574 µM | > 100 µM | 0.0732 µM | > 100 µM | > 100 µM | > 100 µM | 0.0355 µM | > 100 µM | > 100 µM | > 100 µM | > 100 µM | > 100 µM | > 100 µM | > 100 µM | 0.0574 µM | > 100 µM |
| C#C[C@]1(O)CC[C@H]2[C@@H]3CC=C4c5nc(Nc6ccc(OC)cc6OC)sc5CC[C@]4(C)[C@H]3CC[C@@]21C | 1.58 µM | 3.74 µM | 1.75 µM | 10.7 µM | 0.845 µM | 9.02 µM | 2.36 µM | 17 µM | 2.07 µM | 5.57 µM | 4.44 µM | > 100 µM | 2.1 µM | 7 µM | 1.93 µM | 7.37 µM | 2.32 µM | 10.8 µM | 0.525 µM | 13 µM |
| Cc1ccc(NC2=C(Cl)C(=O)c3nc(C)ccc3C2=O)cc1 | 0.395 µM | 1.39 µM | 1.32 µM | 3.01 µM | 1.19 µM | 2.78 µM | 1.73 µM | 4.62 µM | 2.59 µM | 12.1 µM | 1.28 µM | 2.66 µM | 1.4 µM | 2.93 µM | 0.836 µM | 2.58 µM | 1.47 µM | 2.85 µM | 0.702 µM | > 100 µM |
| COC(=O)c1c2c(c(C)[n+]([O-])c1C)C(=O)C(NCc1ccc(F)c(Cl)c1)=CC2=O | 0.306 µM | 1.24 µM | 2.81 µM | 9.33 µM | 2.27 µM | 12.9 µM | 2.08 µM | 6.92 µM | 1.96 µM | 9.63 µM | 0.652 µM | 2.07 µM | 2.52 µM | 5.79 µM | 2.96 µM | 23.1 µM | 2.44 µM | 7.89 µM | 2.67 µM | > 100 µM |
| O=C1c2cccc3c(N4CCN(c5ccc6c7c(cccc57)C(=O)N(CCN5CCNCC5)C6=O)CC4)ccc(c23)C(=O)N1CCN1CCNCC1 | 20.3 µM | 42.1 µM | 16.1 µM | 61.6 µM | 13.5 µM | 32.4 µM | 13.8 µM | 32.6 µM | 12 µM | 30.5 µM | 18.3 µM | 42.3 µM | 7.31 µM | 29 µM | 7.96 µM | 27.7 µM | 14.1 µM | 40.6 µM | 2.78 µM | 8.29 µM |
| O=[N+]([O-])c1ccc(N(CCO)CCO)c2c1no[n+]2[O-] | 1.51 µM | 3.91 µM | 1.76 µM | 5.9 µM | 1.57 µM | 15.9 µM | 1.44 µM | 6.41 µM | 1.16 µM | 2.53 µM | 1.65 µM | 6.62 µM | 1.22 µM | 5.82 µM | 1.39 µM | 4.16 µM | 1.68 µM | 5.64 µM | 1.58 µM | 4.65 µM |
| O=C1/C(=C\c2ccccc2)c2ccccc2N1Cc1ccccc1 |  | 11.9 µM |  | 15 µM |  | 15.9 µM |  | 19.2 µM |  | 13.9 µM |  | 27.5 µM |  | 13.8 µM |  | 17.6 µM |  | 17 µM |  | > 31.3 µM |
| NC(N)=NC(N)=NCCc1ccccc1 | 83.9 µM and > 100 µM | > 100 µM | > 100 µM | > 100 µM | 45.3 µM and 60.3 µM | > 100 µM | > 100 µM | > 100 µM | > 100 µM | > 100 µM | 66.7 µM and 97.9 µM | > 100 µM | 1.51 µM | > 100 µM | 37.4 µM and > 100 µM | > 100 µM | > 100 µM | > 100 µM | 66.6 µM and 30.8 µM | > 100 µM |
| O=C(c1cccs1)c1c(C(F)(F)F)n([O-])c2cc(F)c(F)cc2[n+]1=O | 1.66 µM | 4.14 µM | 6.01 µM | 8.76 µM | 2.62 µM | 4.82 µM | 2.1 µM | 4.77 µM | 4.95 µM | 8.73 µM | 31.9 µM | 50 µM | 1.46 µM | 4.24 µM | 3.77 µM | 6.21 µM | 1.9 µM | 4.86 µM | 0.71 µM | 2.44 µM |
| Cc1cc(NC(=O)CCc2ccc(N3C(N)=NC(N)=NC3(C)C)cc2)ccc1S(=O)(=O)F | 12.2 µM | > 100 µM | 0.269 µM | > 100 µM | 0.368 µM | > 100 µM | > 100 µM | > 100 µM | 0.338 µM | > 63.7 µM | 12.3 µM | > 100 µM | > 39 µM | > 100 µM | 20.9 µM | > 100 µM | 2.63 µM | > 100 µM | 0.737 µM | > 100 µM |
| CCC(=S)N(C)O |  | > 100 µM |  | > 100 µM |  | > 100 µM |  | > 100 µM |  | > 93.1 µM |  | > 100 µM |  | > 100 µM |  | > 95.3 µM |  | > 100 µM |  | > 79.8 µM |
